Data: PubChem BioAssay (NCI)
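Exposure lasted 48 hours, with cells grown in 96-well plates and compounds tested at five concentrations. TGI denotes the concentration required for complete inhibition of growth.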

How the values were obtained:
Assay in all cases: DTP human tumour cell line panel, 48 h
RXF 393 renal = tested on: RXF 393 renal
UACC-257 melanoma = tested on: UACC-257 melanoma
SR leukemia = tested on: SR leukemia
SN12C renal = tested on: SN12C renal
ACHN renal = tested on: ACHN renal
M19-MEL melanoma = tested on: M19-MEL melanoma
EKVX NSCLC = tested on: EKVX NSCLC
KM20L2 colon = tested on: KM20L2 colon
COLO 205 colon = tested on: COLO 205 colon
CCRF-CEM leukemia = tested on: CCRF-CEM leukemia
LXFL 529 NSCLC = tested on: LXFL 529 NSCLC
SW-620 colon = tested on: SW-620 colon
KM12 colon = tested on: KM12 colon
A549 NSCLC = tested on: A549 NSCLC
NCI-H23 lung = tested on: NCI-H23 lung
UACC-62 melanoma = tested on: UACC-62 melanoma
HCC-2998 colon = tested on: HCC-2998 colon
SNB-75 CNS = tested on: SNB-75 CNS
SK-OV-3 ovarian = tested on: SK-OV-3 ovarian
RPMI-8226 leukemia = tested on: RPMI-8226 leukemia
RXF-631 renal = tested on: RXF-631 renal
NCI-H460 lung = tested on: NCI-H460 lung
SNB-78 CNS = tested on: SNB-78 CNS
TK-10 renal = tested on: TK-10 renal
HOP-92 NSCLC = tested on: HOP-92 NSCLC
M14 melanoma = tested on: M14 melanoma
OVCAR-5 ovarian = tested on: OVCAR-5 ovarian
OVCAR-3 ovarian = tested on: OVCAR-3 ovarian
NCI-H226 lung = tested on: NCI-H226 lung
SK-MEL-5 melanoma = tested on: SK-MEL-5 melanoma
SNB-19 CNS = tested on: SNB-19 CNS
IGROV1 ovarian = tested on: IGROV1 ovarian
HCT-116 colon = tested on: HCT-116 colon
U251 CNS = tested on: U251 CNS
786-0 renal = tested on: 786-0 renal
HOP-62 NSCLC = tested on: HOP-62 NSCLC
K-562 leukemia = tested on: K-562 leukemia
SF-539 CNS = tested on: SF-539 CNS
NCI-H522 lung = tested on: NCI-H522 lung
HCT-15 colon = tested on: HCT-15 colon
UO-31 renal = tested on: UO-31 renal
SF-268 CNS = tested on: SF-268 CNS
HT29 colon = tested on: HT29 colon
SK-MEL-2 melanoma = tested on: SK-MEL-2 melanoma
OVCAR-4 ovarian = tested on: OVCAR-4 ovarian
OVCAR-8 ovarian = tested on: OVCAR-8 ovarian
SF-295 CNS = tested on: SF-295 CNS
DMS 114 small cell lung = tested on: DMS 114 small cell lung
DLD-1 colon = tested on: DLD-1 colon
HL-60(TB) leukemia = tested on: HL-60(TB) leukemia
DMS 273 small cell lung = tested on: DMS 273 small cell lung
MALME-3M melanoma = tested on: MALME-3M melanoma
LOX IMVI melanoma = tested on: LOX IMVI melanoma
MOLT-4 leukemia = tested on: MOLT-4 leukemia
SK-MEL-28 melanoma = tested on: SK-MEL-28 melanoma
CAKI-1 renal = tested on: CAKI-1 renal
HOP-18 NSCLC = tested on: HOP-18 NSCLC
XF 498 CNS = tested on: XF 498 CNS
A498 renal = tested on: A498 renal

O=c1[nH]c2cc(Cl)ccc2nc1/C(=N\Nc1ccccc1)C(O)c1ccc(Cl)c(Cl)c1 (centres undefined)
TGI (RXF 393 renal): > 100 µM | TGI (UACC-257 melanoma): > 100 µM | TGI (SR leukemia): > 100 µM | TGI (SN12C renal): > 100 µM | TGI (ACHN renal): > 100 µM | TGI (M19-MEL melanoma): > 100 µM | TGI (EKVX NSCLC): > 100 µM | TGI (KM20L2 colon): > 100 µM | TGI (COLO 205 colon): > 100 µM | TGI (CCRF-CEM leukemia): > 100 µM | TGI (LXFL 529 NSCLC): > 100 µM | TGI (SW-620 colon): > 100 µM | TGI (KM12 colon): > 100 µM | TGI (A549 NSCLC): > 100 µM | TGI (NCI-H23 lung): > 100 µM | TGI (UACC-62 melanoma): > 100 µM | TGI (HCC-2998 colon): > 100 µM | TGI (SNB-75 CNS): > 100 µM | TGI (SK-OV-3 ovarian): > 100 µM | TGI (RPMI-8226 leukemia): > 100 µM | TGI (RXF-631 renal): > 100 µM | TGI (NCI-H460 lung): > 100 µM | TGI (SNB-78 CNS): > 100 µM | TGI (TK-10 renal): > 100 µM | TGI (HOP-92 NSCLC): > 100 µM | TGI (M14 melanoma): > 100 µM | TGI (OVCAR-5 ovarian): > 100 µM | TGI (OVCAR-3 ovarian): > 100 µM | TGI (NCI-H226 lung): > 100 µM | TGI (SK-MEL-5 melanoma): > 100 µM | TGI (SNB-19 CNS): > 100 µM | TGI (IGROV1 ovarian): > 100 µM | TGI (HCT-116 colon): > 100 µM | TGI (U251 CNS): > 100 µM | TGI (786-0 renal): > 100 µM | TGI (HOP-62 NSCLC): > 100 µM | TGI (K-562 leukemia): > 100 µM | TGI (SF-539 CNS): > 100 µM | TGI (NCI-H522 lung): > 100 µM | TGI (HCT-15 colon): > 100 µM | TGI (UO-31 renal): > 100 µM | TGI (SF-268 CNS): > 100 µM | TGI (HT29 colon): > 100 µM | TGI (SK-MEL-2 melanoma): > 100 µM | TGI (OVCAR-4 ovarian): > 100 µM | TGI (OVCAR-8 ovarian): > 100 µM | TGI (SF-295 CNS): > 100 µM | TGI (DMS 114 small cell lung): > 100 µM | TGI (DLD-1 colon): > 100 µM | TGI (HL-60(TB) leukemia): > 100 µM | TGI (DMS 273 small cell lung): > 100 µM | TGI (MALME-3M melanoma): > 100 µM | TGI (LOX IMVI melanoma): > 100 µM | TGI (MOLT-4 leukemia): > 100 µM

CCCCCCCCCCCCNC(=S)OC
TGI (RXF 393 renal): 25.7 µM | TGI (UACC-257 melanoma): 32.5 µM | TGI (SR leukemia): 17.9 µM | TGI (SN12C renal): 27.3 µM | TGI (ACHN renal): 33 µM | TGI (M19-MEL melanoma): 32.7 µM | TGI (EKVX NSCLC): 36.6 µM | TGI (KM20L2 colon): 30 µM | TGI (CCRF-CEM leukemia): 33.3 µM | TGI (LXFL 529 NSCLC): 28.2 µM | TGI (SW-620 colon): 30.2 µM | TGI (KM12 colon): 29.6 µM | TGI (A549 NSCLC): 35 µM | TGI (NCI-H23 lung): 34 µM | TGI (UACC-62 melanoma): 30.7 µM | TGI (HCC-2998 colon): 32.9 µM | TGI (SNB-75 CNS): 45 µM | TGI (SK-OV-3 ovarian): 35 µM | TGI (RPMI-8226 leukemia): 27.5 µM | TGI (NCI-H460 lung): 31.2 µM | TGI (SNB-78 CNS): 45.9 µM | TGI (TK-10 renal): 34.5 µM | TGI (HOP-92 NSCLC): 20.1 µM | TGI (M14 melanoma): 32.1 µM | TGI (OVCAR-5 ovarian): 30.9 µM | TGI (SK-MEL-28 melanoma): 37.9 µM | TGI (SK-MEL-5 melanoma): 31 µM | TGI (SNB-19 CNS): 69.8 µM | TGI (CAKI-1 renal): 28.3 µM | TGI (IGROV1 ovarian): 24.3 µM | TGI (HCT-116 colon): 29.3 µM | TGI (U251 CNS): 29.5 µM | TGI (786-0 renal): 29.3 µM | TGI (HOP-62 NSCLC): 31.9 µM | TGI (K-562 leukemia): 39.6 µM | TGI (SF-539 CNS): 30.9 µM | TGI (NCI-H522 lung): 26 µM | TGI (HCT-15 colon): 27.7 µM | TGI (UO-31 renal): 17.8 µM | TGI (SF-268 CNS): 32.8 µM | TGI (HT29 colon): 32.8 µM | TGI (SK-MEL-2 melanoma): 31.1 µM | TGI (OVCAR-4 ovarian): 38.6 µM | TGI (HOP-18 NSCLC): 32.3 µM | TGI (OVCAR-8 ovarian): 29.7 µM | TGI (XF 498 CNS): 30.6 µM | TGI (SF-295 CNS): 36 µM | TGI (DMS 114 small cell lung): 17.9 µM | TGI (DLD-1 colon): 28.9 µM | TGI (HL-60(TB) leukemia): 27.9 µM | TGI (DMS 273 small cell lung): 29.3 µM | TGI (A498 renal): 31.6 µM | TGI (MALME-3M melanoma): 29.5 µM | TGI (LOX IMVI melanoma): 28.7 µM | TGI (MOLT-4 leukemia): 9.43 µM
